In patent publication US11635434B2, “Betaretrovirus epitopes and related methods of use” (priority 2018, dated 2023):

Tested on: intrahepatic lymphocytes (IHL)
Test: IFN-γ ELISPOT of intrahepatic lymphocytes stimulated with individual HBRV peptides
Assay type: cell-based, human
From the text: We isolated intrahepatic lymphocytes (IHL) to increase the likelihood of finding HBRV reactive lymphocytes (FIG. 3). IHL were extracted from 5 PBC subjects and 4 LT controls, as described^58 (FIG. 4B). ELISPOT was employed to detect IFN-γ spot forming colonies (SFC) using 100,000 IHL per reaction. Individual peptides from HBRV GAG and Env (immunosuppressive domains (ISD) peptides removed) were used to perform 140 analyses per sample with […] as positive and no stimulus as negative control. We found 15 GAG and 21 Env peptides that produced SFC above background levels (FIG. 6A).
Cellular immune responses have been found using pooled peptides of the HBRV Gag (n=58) and Env (n=85) proteins. […] In order to characterize immunodominant HBRV epitopes, we screened intra-hepatic lymphocytes (IHL) from PBC subjects and control subjects for evidence of IFNg production. Methods: IHL were isolated from liver transplant recipients with PBC (n=5) and other hepatic disorders (n=4). IHL were individually stimulated with 15-mer peptides from HBRV Gag or Env proteins (n=144) or the characterized CD8+ reactive epitope to pyruvate dehydrogenase-E2 (PDH-E2). ELISpot was used to measure spot forming colonies (SFC) producing IFN-g.

Sequence: TIYLGGSPDFHGFRNMSG [Env 17]
- number of PBC subjects whose IHL were reactive (IFN-γ producing) (5 PBC subjects): 1
- SFC level in the reactive PBC subject's IHL (FIG. 6A): < 50 SFC
